Test results reported in US10517842B2, “Methods of modulating miRNA levels and compositions for use in the same” (Los Angeles Biomedical Research Institute at Harbor-UCLA …, priority 2017, dated 2019).

Tests used:
[1] = system: caspase 3/7; experiment: Caspase-3/7 activity assay (Apo-One) in LSMC; type: cell-based, human; settings: Tranilast 200 μM, 48 hrs
Description: LSMC were cultured in 96-well plates as mentioned above and at sub-confluence were treated with 200 μM Tranilast for 48 hrs. The caspase 3/7 activity was determined using the Apo-One homogeneous caspase-3/7 assay (Promega, Madison, Wis.) after the indicated time periods according to the manufacturer's protocol. The Apo-One caspase-3/7 reagent was added in a 1:1 ratio with the medium, and the rate of caspase-3/7 activity was determined by measuring the fluorescence using a multi-plate reader (Molecular Devices, Inc., Sunnyvale, Calif.) at an excitation of 485 nm and an emission of 527 nm.

[2] = system: miR-200c; experiment: Quantitative RT-PCR (TaqMan miRNA assay), cellular and secreted miRNA in LSMC; type: cell-based, human; settings: Tranilast 200 μM, 48 hours, P<0.05
Description: (§1) Total RNA was extracted from LSMC using RNAzol (GeneCopoeia, Rockville, Md.) and their quantity and quality was determined (ND-1000 Spectrophotometer, NanoDrop Technologies, Wilmington, Del.) as previously described (Chuang & Khorram, “miR-200c Regulates IL8 Expression by Targeting IKBKB: A Potential Mediator of Inflammation in Leiomyoma Pathogenesis,” PloS one (2014) 9:e95370). For medium miRNA extraction, 5 pg of synthetic miR-1 from Caenorhabditis elegans (cel-miR-1) was added as a spike-in control for purification efficiency. Subsequently, 2 μg or 10 ng (for miRNA) was reverse transcribed using random primers for CCND1, CDK2, COL1A1, COL3A1, TGF-β3, DNMT1 and EZH2 or specific primers for miR-29c and miR-200c according to the manufacturer's guidelines (Applied Biosystems, Carlsbad, Calif.). Quantitative RT-PCR was carried out using SYBR gene expression master mix or TaqMan miRNA expression assays (Applied Biosystems). Reactions were incubated for 10 min at 95° C. followed by 40 cycles for 15 seconds at 95° C. and 1 min at 60° C. The level of mRNAs and expression of cellular and secreted miRNA was determined using the Invitrogen StepOne System with 18S, RNU6B and cel-miR-1 used for normalization respectively. All reactions were run in triplicate and relative expression was analyzed with the comparative cycle threshold method (2^−ΔΔCT) according to the manufacturer (Applied Biosystems). Values were expressed as fold change compared to the control group.

[3] = system: miR-29c; experiment: as above; type: cell-based, human; settings: Tranilast 200 μM, 48 hours, P<0.05
Description: as §1

[4] = system: 3′UTR of CDK2; experiment: 3′UTR luciferase reporter assay in LSMC; type: cell-based, human; settings: Tranilast 200 μM vs DMSO set as 1, 48 hrs before and 48 hrs after transfection, LSMC; P<0.05
[5] = system: 3′UTR of CDK2 in lung cancer cell line A549; experiment: 3′UTR luciferase reporter assay in A549; type: cell-based; settings: Tranilast
[6] = system: NF-kB; experiment: NF-kB luciferase reporter assay in LSMC; type: cell-based, human; settings: Tranilast 200 μM, 48 hrs, vs DMSO set as 1
Description: The ratio of Firefly:Renilla was determined after treatment of Tranilast (200 μM) for 48 hrs and reported as relative luciferase activity as compared to DMSO which was independently set as 1. FIG. 13B: Graphical depiction of the NF-Kb (p65) binding elements in the miR-200c promoter. […] The results are presented as mean±SEM of at least three independent experiments using LSMC isolated from 3 patients.

Structure (SMILES): COc1ccc(C=CC(=O)Nc2ccccc2C(=O)O)cc1OC [Tranilast, 2-[[3-(3,4-dimethoxyphenyl)-1-oxo-2-propenyl]amino]benzoic acid]
- Caspase 3/7 activity [1]: without a significant effect
- expression of secreted (medium) miR-200c ([2]; LSMC medium): significantly increased
- expression of cellular miR-200c ([2]; LSMC): significantly increased
- expression of secreted (medium) miR-29c ([3]; LSMC medium): significantly increased
- expression of cellular miR-29c ([3]; LSMC): significantly increased
- 3′UTR activity of CDK2 (relative luciferase activity, Firefly:Renilla) [4]: suppressed
- activity of luciferase reporter containing 3′UTR of CDK2 [5]: Inhibits
- NF-kB signaling (NF-kB luciferase reporter activity) [6]: Blockade
